From US20260083865A1, “PROSTATE SPECIFIC MEMBRANE ANTIGEN (PSMA) LIGANDS AND USE THEREOF” (priority 2022, published 2026)
Where two headings read alike, the source gives them in different places. Each block holds one molecule with its values, some of them ahead of it. Numbered stars: 1 amine (or outer) side, 2 acyl side, 3 side chain; on linkers, the order of the positions; unused ones are H or OH. Bridge positions count the residues as written; N and C are the ends. Square brackets hold non-standard residues; d marks the D form. Peptide text beside a SMILES is read from it. * marks the point of attachment. TtdsdLys(DOTA)NH2 = NC(=O)[C@@H](CCCCNC(=O)CN1CCN(CC(=O)O)CCN(CC(=O)O)CCN(CC(=O)O)CC1)NC(=O)CCC(=O)NCCCOCCOCCOCCCN*; DOTA = O=C(O)CN1CCN(CC(=O)O)CCN(CC(=O)*)CCN(CC(=O)O)CC1; Phe(4-Cl) = N[C@@H](Cc1ccc(Cl)cc1)C(=O)O; Tle = CC(C)(C)[C@H](N)C(=O)O; Nle = CCCC[C@H](N)C(=O)O; Hexanoyl = CCCCCC(=O)*; Aib = CC(C)(N)C(=O)O; CH2 = C([*:1])[*:2]; GABA = NCCCC(=O)O; βAla = NCCC(=O)O

Experiments:
[1] = target: T1, Fc-fusion protein of human PSMA (hPSMA-Fc) (Homo sapiens, UniProt Q04609); experiment: Surface plasmon resonance assay (Biacore T200, single cycle kinetic); assay type: binding; conditions: for Kd: read-out: pKD CAT (converted)
T1 construct: purchased Acro Biosystems PSA-H5264
T1 sequence (Q04609 44-750 limits assumed): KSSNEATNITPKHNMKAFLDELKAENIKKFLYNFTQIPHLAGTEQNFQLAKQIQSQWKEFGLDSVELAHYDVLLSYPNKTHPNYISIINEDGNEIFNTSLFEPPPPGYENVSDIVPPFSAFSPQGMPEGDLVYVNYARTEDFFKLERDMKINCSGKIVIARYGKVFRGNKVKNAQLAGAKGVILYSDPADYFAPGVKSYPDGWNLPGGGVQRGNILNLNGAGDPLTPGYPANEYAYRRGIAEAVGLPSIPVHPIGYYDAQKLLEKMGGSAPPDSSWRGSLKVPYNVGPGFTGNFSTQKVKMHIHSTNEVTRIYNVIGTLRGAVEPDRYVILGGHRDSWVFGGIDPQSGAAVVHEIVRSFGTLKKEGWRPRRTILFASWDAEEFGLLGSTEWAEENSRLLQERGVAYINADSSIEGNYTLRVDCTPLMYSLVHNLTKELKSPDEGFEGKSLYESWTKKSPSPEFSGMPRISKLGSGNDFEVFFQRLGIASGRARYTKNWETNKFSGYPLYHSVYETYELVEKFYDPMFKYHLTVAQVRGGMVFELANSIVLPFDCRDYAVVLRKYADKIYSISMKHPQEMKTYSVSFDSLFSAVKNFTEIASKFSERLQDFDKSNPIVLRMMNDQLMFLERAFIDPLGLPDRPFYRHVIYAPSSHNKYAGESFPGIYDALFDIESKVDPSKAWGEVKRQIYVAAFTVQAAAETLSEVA
Method in brief: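 KD, expressed as pKD, came from 1:1 Langmuir fits of reference- and buffer-blank-subtracted SPR data. The runs were single-cycle kinetics at 25° C in HBST/0.1% DMSO over human PSMA-Fc, captured to ~1000 RU on a peptide-coated CM5 surface and regenerated with 10 mM glycine pH 1.5.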

[2] = target: T2, PSMA-expressing C4-2 cells (Homo sapiens, UniProt Q04609); experiment: FACS binding assay (competition with 50 nM PSM-0183); conditions: for IC50: read-out: pIC50 [C4-2] CAT (converted)
T2 construct: PSMA-expressing C4-2 cells (ATCC, Cat. No. CRL-3314) were cultured in RPMI-1640; host or cells: C4-2 cells
T2 sequence (Q04609 whole entry): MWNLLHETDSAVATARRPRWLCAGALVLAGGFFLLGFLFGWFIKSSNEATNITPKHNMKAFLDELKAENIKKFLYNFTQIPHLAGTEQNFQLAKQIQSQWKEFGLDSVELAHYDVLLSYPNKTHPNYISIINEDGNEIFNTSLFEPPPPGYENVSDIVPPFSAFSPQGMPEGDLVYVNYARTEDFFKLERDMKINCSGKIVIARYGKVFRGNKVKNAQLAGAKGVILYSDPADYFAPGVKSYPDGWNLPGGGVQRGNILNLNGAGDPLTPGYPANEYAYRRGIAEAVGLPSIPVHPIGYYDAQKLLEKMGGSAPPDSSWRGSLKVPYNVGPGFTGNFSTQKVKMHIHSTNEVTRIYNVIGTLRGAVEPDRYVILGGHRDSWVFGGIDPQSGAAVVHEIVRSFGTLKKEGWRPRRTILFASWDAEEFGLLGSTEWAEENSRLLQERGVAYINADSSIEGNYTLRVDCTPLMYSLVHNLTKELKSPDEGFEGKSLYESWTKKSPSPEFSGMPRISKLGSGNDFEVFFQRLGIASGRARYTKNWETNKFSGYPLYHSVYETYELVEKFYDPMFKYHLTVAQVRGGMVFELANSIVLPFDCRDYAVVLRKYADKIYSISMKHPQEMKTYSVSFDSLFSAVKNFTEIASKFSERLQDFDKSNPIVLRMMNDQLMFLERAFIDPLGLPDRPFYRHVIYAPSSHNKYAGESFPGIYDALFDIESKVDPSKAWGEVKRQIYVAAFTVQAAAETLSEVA
Method in brief: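 Competition format: fluorescent tracer PSM-0183 (50 nM) displaced from PSMA on C4-2 cells by a test compound titration over 1 h at 4 °C. Bound tracer was quantified as flow-cytometric AF488 median fluorescence after washing. Four-parameter logistic fits of MFI data gave IC50 and pIC50.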

[3] = PSMA SPR assay, hPSMA-Fc, 25° C., pKD category
[4] = FACS binding, PSMA-expressing C4-2 cells, pIC50 category
[5] = FACS binding, C4-2 cells, category

Molecule: CCCC[C@H](NC(=O)[C@@H]1CSSC[C@H](NC(=O)[C@H](Cc2ccccc2)NC(=O)[C@H](C)NC(=O)[C@@H](NC(C)=O)[C@@H](C)O)C(=O)N[C@@H](CCCCN)C(=O)N[C@@H](CCCNC(=N)N)C(=O)N[C@@H](C)C(=O)N[C@@H](CC(N)=O)C(=O)N1)C(=O)N[C@H](C(=O)NCCCC(=O)O)[C@@H](C)O [PSM-0313, Ac-Thr-Ala-Phe-[Cys-Lys-Arg-Ala-Asn-Cys]-Nle-Thr-Gab-OH] (Ac-TAFCKRANC[Nle]T[GABA]-OH; disulfide 4-9)
Kd [1, 3]: 126 to 501 nM
IC50 [2, 4]: 200 to 1260 nM

Molecule: C[C@@H](O)[C@H](NC(=O)[C@@H](NC(=O)[C@@H]1CSSC[C@H](NC(=O)[C@H](Cc2ccc(Cl)cc2)NC(=O)C(C)(C)NC(=O)CCNC(=O)CN2CCN(CC(=O)O)CCN(CC(=O)O)CCN(CC(=O)O)CC2)C(=O)N[C@@H](CCCCN)C(=O)N[C@@H](CCCNC(=N)N)C(=O)NC(C)(C)C(=O)N[C@@H](CC(N)=O)C(=O)N1)C(C)(C)C)C(N)=O [PSM-0352, DOTA-Bal-Aib-Pcf-[Cys-Lys-Arg-Aib-Asn-Cys]-Tle-Thr-NH2] ({DOTA-βAla}-[Aib][Phe(4-Cl)]CKR[Aib]NC[Tle]T-NH2; disulfide 3-8)
Kd [1, 3]: < 12.6 nM
IC50 [2, 4]: < 200 nM

Molecule: nBuCAyl-Thr-Aib-Phe-[Cys-Lys-Arg-Aib-Asn-Cys]-Tle-Thr-Cmp-lys(InDOTA)-NH2 [PSM-0214]
pKD CAT ([1]; SPR, hPSMA-Fc, single cycle kinetic, 25° C., category): A (pKD values >7.9)
pIC50 [C4-2] CAT ([2]; FACS binding, C4-2 cells, competition with 50 nM PSM-0183, category): A (pIC50 values >6.7)

Molecule: CCCCCC(=O)N[C@H](C(=O)NC(C)(C)C(=O)N[C@@H](Cc1ccccc1)C(=O)N[C@H]1CSSC[C@@H](C(=O)N[C@H](C(=O)N[C@H](C(=O)NCCCOCCOCCOCCCNC(=O)CCC(=O)N[C@H](CCCCNC(=O)CN2CCN(CC(=O)O)CCN(CC(=O)O)CCN(CC(=O)O)CC2)C(N)=O)[C@@H](C)O)C(C)(C)C)NC(=O)[C@H](CC(N)=O)NC(=O)[C@H](C)NC(=O)[C@H](CCCNC(=N)N)NC(=O)[C@H](CCCCN)NC1=O)[C@@H](C)O [PSM-0462, Hex-Thr-Aib-Phe-[Cys-Lys-Arg-Ala-Asn-Cys]-Tle-Thr-Ttds-lys(DOTA)-NH2] (Hexanoyl-T[Aib]FCKRANC[Tle]T-{TtdsdLys(DOTA)NH2}; disulfide 4-9)
Kd ([1]; pKD category for PSMA SPR activity assay, hPSMA-Fc, 25° C.): < 12.6 nM
IC50 ([2]; pIC50 category of FACS binding, C4-2 cells): < 200 nM

Further lines, results first:

Kd ([1]; PSMA SPR assay, category): > 501 nM
IC50 [2, 5]: 1260 to 3160 nM
Molecule: CCCC[C@H](NC(=O)[C@@H]1CSSC[C@H](NC(=O)[C@H](Cc2ccccc2)NC(=O)[C@H](C)NC(=O)[C@@H](NC(C)=O)[C@@H](C)O)C(=O)N[C@@H](CCCCN)C(=O)N[C@@H](C)C(=O)N[C@@H](C)C(=O)N[C@@H](CC(N)=O)C(=O)N1)C(=O)N[C@H](C(=O)N[C@@H](CC(=O)O)C(N)=O)[C@@H](C)O [PSM-0581, Ac-Thr-Ala-Phe-[Cys-Lys-Ala-Ala-Asn-Cys]-Nle-Thr-Asp-NH2] (Ac-TAFCKAANC[Nle]TD-NH2; disulfide 4-9)

Kd ([1]; PSMA SPR assay, category): > 501 nM
IC50 [2, 5]: > 3160 nM
Molecule: CCCC[C@H](NC(=O)[C@@H]1CSSC[C@H](NC(=O)[C@H](C)NC(=O)[C@H](C)NC(=O)[C@@H](NC(C)=O)[C@@H](C)O)C(=O)N[C@@H](CCCCN)C(=O)N[C@@H](CCCNC(=N)N)C(=O)N[C@@H](C)C(=O)N[C@@H](CC(N)=O)C(=O)N1)C(=O)N[C@H](C(=O)N[C@@H](CC(=O)O)C(N)=O)[C@@H](C)O [PSM-0586, Ac-Thr-Ala-Ala-[Cys-Lys-Arg-Ala-Asn-Cys]-Nle-Thr-Asp-NH2] (Ac-TAACKRANC[Nle]TD-NH2; disulfide 4-9)

Kd ([1]; PSMA SPR assay, category): < 12.6 nM
IC50 [2, 5]: < 200 nM
Molecule: CC(=O)N[C@H](C(=O)NC(C)(C)C(=O)N[C@@H](Cc1ccccc1)C(=O)N[C@H]1CSCSC[C@@H](C(=O)N[C@H](C(=O)N[C@H](C(=O)N[C@@H](CC(=O)O)C(N)=O)[C@@H](C)O)C(C)(C)C)NC(=O)[C@H](CC(N)=O)NC(=O)[C@H](C)NC(=O)[C@H](CCCNC(=N)N)NC(=O)[C@H](CCCCN)NC1=O)[C@@H](C)O [PSM-0567, Ac-Thr-Aib-Phe-[Smc-Lys-Arg-Ala-Asn-Cys]-Tle-Thr-Asp-NH2] (Ac-T[Aib]FCKRANC[Tle]TD-NH2; linker 4-9 via CH2)
